Results as given in ChEMBL document CHEMBL4043145, “Pyridine-pyrimidine amides that prevent HGF-induced epithelial scattering by two distinct mechanisms” (Bioorg Med Chem Lett, 2017).

Experiments:
MCF7 = test: Antiproliferative activity against human MCF7 cells at 10 uM relative to control; format: functional, cell-based
A2780 = test: Antiproliferative activity against human A2780 cells; format: functional, cell-based
MDCK-II = test: Antimigratory activity against MDCK2 cells assessed as inhibition of HGF-induced cell scattering at 1 uM pretreated for 18 hrs followed by HGF addition measured after 20 to 24 hrs by crystal violet staining-based assay relative to control; format: functional; settings: Canis lupus familiaris
[1] = (§1) Inhibition of bovine brain tubulin polymerization; parameters: species or system Bos taurus
Bos taurus = species on record: Bos taurus; test: as §1

SMILES	EC50 (MCF7)	EC50 (A2780)	inhibition at 1 µM (MDCK-II)	other results
O=C(Nc1ccc(-c2ccncc2)cn1)c1cncnc1	> 10000 nM	4680 nM		
CSc1ncncc1C(=O)Nc1ccc(-c2ccccc2)cn1	> 10000 nM	> 10000 nM		
Cc1nc(NC(=O)c2nccs2)ccc1Cl			-28%	
O=C(Nc1cncnc1)c1ccc(-c2ccccc2)cn1	> 10000 nM	> 10000 nM		
O=C(Nc1ccc(-c2ccccc2)cn1)c1cnco1			-10%	
Cc1nc(NC(=O)c2cnc3cccnc3c2)ccc1I			33%	
O=C(Nc1ccc(-c2ccccc2)cn1)c1cccnc1	220 nM	78 nM		
Cc1nc(NC(=O)c2cc([N+](=O)[O-])ccc2N2CCOCC2)ccc1I			31.7%	
O=C(Nc1ccc2ccccc2n1)c1cnco1			-58%	
Cc1nc(NC(=O)c2cnc3cccnc3c2)cnc1Br			-25%	
O=C(Nc1ccc(-c2ccccc2)cn1)c1nccs1			-13%	
CC[C@]1(O)C[C@H]2CN(CCc3c([nH]c4ccccc34)[C@@](C(=O)OC)(c3cc4c(cc3OC)N(C=O)[C@H]3[C@@](O)(C(=O)OC)[C@H](OC(C)=O)[C@]5(CC)C=CCN6CC[C@]43[C@@H]65)C2)C1 [VINCRISTINE]				IC50 [1]: 400 to 684 nM
O=C(Nc1ccc2ccccc2n1)c1nccs1			-51%	
Cc1nc(NC(=O)c2ccc(N3CCCCC3)c([N+](=O)[O-])c2)ccc1I			29.4%	
Cc1nc(NC(=O)c2cncnc2)ccc1Cl			-18%	
O=C(Nc1ncc[nH]1)c1nccs1			-67%	
Cc1nc(NC(=O)c2cncc([N+](=O)[O-])c2)ccc1Cl			-20%	
O=C(Nc1cscn1)c1cccc(C(F)(F)F)c1			-73%	
Cc1cc(NC(=O)c2cccc([N+](=O)[O-])c2C)c(C)cc1I			36.1%	
O=C(Nc1ccc2ccccc2n1)c1cncnc1			-55%	
O=C(Nc1ccccn1)c1cccc([N+](=O)[O-])c1			45.3%	
O=C(Nc1ccc(-c2ccccc2)cn1)c1cncc([N+](=O)[O-])c1			-32%	

SMILES	EC50 (MCF7)	EC50 (A2780)	inhibition at 1 µM (MDCK-II)	other results
Cc1nc(NC(=O)c2ccc(N3CCCC3)c([N+](=O)[O-])c2)ccc1I			44%	
Cc1ncc(C(=O)Nc2ccc(-c3cccc(OC4CC4)c3)cn2)cn1				inhibition (Bos taurus): Dose-dependent effect; IC50 [1]: 817 nM
O=C(Nc1ccc(-c2ccccc2)cn1)c1ccncn1	> 10000 nM	> 10000 nM		
O=C(Nc1ccc(-c2ccccn2)cn1)c1cncnc1	651 nM	612 nM		
Cc1nc(NC(=O)c2cccc(C(F)(F)F)c2)ccc1Cl			-13%	
Cc1nc(NC(=O)c2nccs2)ccc1I			-20%	
O=C(Nc1ncc[nH]1)c1cccc(C(F)(F)F)c1			-72%	
Cc1ccc(C(=O)Nc2ccc(-c3cccc(C4CCO4)c3)cn2)cn1 (stereo unspecified)				inhibition (Bos taurus): Dose-dependent effect; IC50 [1]: 295 nM
Cc1ncc(C(=O)Nc2ccc(-c3ccccc3)cn2)cn1	109 nM	29 nM		
O=C(Nc1ncc(Br)cc1Br)c1cccc([N+](=O)[O-])c1			42.4%	
Cc1nc(NC(=O)c2cnco2)ccc1I			32%	
Cc1cc(NC(=O)c2ccc(C)c([N+](=O)[O-])c2)c(C)cc1I			46.9%	
O=C(Nc1ncc[nH]1)c1cnco1			-50%	
O=C(Nc1ccc2ccccc2n1)c1cccc([N+](=O)[O-])c1			-59%	
O=C(Nc1ccc2ccccc2n1)c1cccc(C(F)(F)F)c1			-59%	
Cc1cc(C)nc(NC(=O)c2cccc([N+](=O)[O-])c2)c1			52.5%	
O=C(Nc1ccc(-c2ccccc2)cn1)c1cnccn1	317 nM	102 nM		
Cc1nc(NC(=O)c2cccc([N+](=O)[O-])c2)cnc1Br			-33%	
CNc1ncc(C(=O)Nc2ccc(-c3ccccc3)cn2)cn1	149 nM	49 nM		
O=C(Nc1cscn1)c1cncnc1			-103%	
O=C(Nc1ccc2ccccc2n1)c1cnc2cccnc2c1			-69%	
O=C(Nc1ncc[nH]1)c1cccc([N+](=O)[O-])c1			-77%	

SMILES	EC50 (MCF7)	EC50 (A2780)	inhibition at 1 µM (MDCK-II)	other results
Cc1nc(NC(=O)c2cccc([N+](=O)[O-])c2)ccc1Br			88.6%	
O=C(Nc1ccc(-c2ccccc2)cc1)c1cncnc1	> 10000 nM	> 10000 nM		
O=C(Nc1ccc(-c2ccccc2)cn1)c1cnc(-c2ccco2)nc1	> 10000 nM	1530 nM		
Cc1nc(NC(=O)c2cccc(C(F)(F)F)c2)ccc1I			72%	
O=C(Nc1ccc(-c2cccnc2)cn1)c1cncnc1	6970 nM	5920 nM		
O=C(Nc1ccc(-c2ccccc2)cn1)c1nccnc1-c1ccccc1	> 10000 nM	> 10000 nM		
O=C(Nc1ccc(-c2ccccc2)cn1)c1cncnc1-c1ccccc1	> 10000 nM	> 10000 nM		
Cc1ncncc1C(=O)Nc1ccc(-c2ccccc2)cn1	> 10000 nM	> 10000 nM		
Cc1nc(NC(=O)c2cnc3cccnc3c2)ccc1Cl			12%	
O=C(Nc1cnc(-c2ccccc2)cn1)c1cncnc1	8330 nM	> 10000 nM		
O=C(COc1cncnc1)Nc1ccc(-c2ccccc2)cn1	> 10000 nM	> 10000 nM		
Cc1nc(NC(=O)c2cccc([N+](=O)[O-])c2)ccc1Cl			-5%	
O=C(Nc1ccc(-c2ccsc2)cn1)c1cncnc1	66 nM	60 nM		
CCOc1ccc(C(=O)Nc2cccc(C)n2)cc1[N+](=O)[O-]			31.7%	
Cc1nc(NC(=O)c2cccc(C(F)(F)F)c2)cnc1Br			-6%	
Cc1cc(NC(=O)c2cccc([N+](=O)[O-])c2)ccc1O			34.6%	
O=S(=O)(Nc1ccc(-c2ccccc2)cn1)c1cccnc1	> 10000 nM	> 10000 nM		
Cc1ncc(C(=O)Nc2ccc(-c3cccc(C4CC4)c3)cn2)cn1				inhibition (Bos taurus): Dose-dependent effect; IC50 [1]: 885 nM
O=C(Nc1ccc(-c2ccccc2)cn1)c1cccc([N+](=O)[O-])c1			29%	
O=C(Cc1cncnc1)Nc1ccc(-c2ccccc2)cn1	> 10000 nM	> 10000 nM		
O=C(Nc1ncc(-c2ccccc2)cn1)c1cncnc1	272 nM	68 nM		
O=C(Nc1ccc(-c2ccccc2)cn1)c1cccc(C(F)(F)F)c1			-2%	

SMILES	EC50 (MCF7)	EC50 (A2780)	inhibition at 1 µM (MDCK-II)	other results
O=C(Nc1ccc(-c2ccccc2)cn1)c1ncccn1	> 10000 nM	> 10000 nM		
O=C(Nc1ccc(-c2cccc(C3CC3)c2)cn1)c1cncnc1				inhibition (Bos taurus): Dose-dependent effect; IC50 [1]: 1030 nM
O=C(Nc1ccc2ccccc2n1)c1cncc([N+](=O)[O-])c1			-63%	
O=C(Nc1ccc(-c2ccccc2Cl)cn1)c1cncnc1	127 nM	255 nM		
O=C(Nc1cscn1)c1cnco1			-54%	
Cc1cc(NC(=O)c2cccc([N+](=O)[O-])c2)ccc1I			53.1%	
Cc1nc(NC(=O)c2cncnc2)cnc1Br			-42%	
Cc1ncc(C(=O)Nc2ccc(-c3cccc(NC4CC4)c3)cn2)cn1				inhibition (Bos taurus): Dose-dependent effect; IC50 [1]: 319 nM
Cc1nc(NC(=O)c2cncc([N+](=O)[O-])c2)cnc1Br			-26%	
Cc1nc(NC(=O)c2nccs2)cnc1Br			-36%	
O=C(Nc1ccc(-c2ccco2)cn1)c1cncnc1	605 nM	196 nM		
O=C(Nc1ccc(-c2ccc(Cl)cc2)cn1)c1cncnc1	> 10000 nM	> 10000 nM		
O=C(Nc1ccc(C2CC2)cn1)c1cncnc1	776 nM	464 nM		
Cc1nc(NC(=O)c2cnco2)ccc1Cl			-35%	
O=C(Nc1ccc(-c2ccoc2)cn1)c1cncnc1	205 nM	271 nM		
CN(C(=O)c1cnccn1)c1ccc(-c2ccccc2)cn1	> 10000 nM	> 10000 nM		
CCOc1ccc(C(=O)Nc2ccc(I)cn2)cc1[N+](=O)[O-]			69.9%	
Cc1nc(NC(=O)c2cncc([N+](=O)[O-])c2)ccc1I			21%	
Cc1nc(NC(=O)c2cnco2)cnc1Br			-21%	
O=C(Nc1ccc(-c2ccccc2)cn1)c1cnc2cccnc2c1			181%	
c1ccc(-c2ccc(NCc3cncnc3)nc2)cc1	> 10000 nM	> 10000 nM		
